From US20120270884A1, “Methods of Treating Aneurysmal Dilatation, Blood Vessel Wall Weakness and Specifically Abdominal Aortic and Thoracic Aneurysm Using Matrix Metalloprotease-2 Inhibitors” (SYMPHONY EVOLUTION, INC., priority 2009, published 2012) come the findings set out here.

Common to all, as to type: biochemical
One test concerns the target MMP-13 (collagenase-3) (Homo sapiens, UniProt P45452). The test is described as follows: In vitro metalloprotease inhibition, MMP-13.
Test [1] concerns the target T1, MMP-2 (72 kDa gelatinase, gelatinase A) (Homo sapiens, UniProt P08253).
T1 sequence (P08253 110-660): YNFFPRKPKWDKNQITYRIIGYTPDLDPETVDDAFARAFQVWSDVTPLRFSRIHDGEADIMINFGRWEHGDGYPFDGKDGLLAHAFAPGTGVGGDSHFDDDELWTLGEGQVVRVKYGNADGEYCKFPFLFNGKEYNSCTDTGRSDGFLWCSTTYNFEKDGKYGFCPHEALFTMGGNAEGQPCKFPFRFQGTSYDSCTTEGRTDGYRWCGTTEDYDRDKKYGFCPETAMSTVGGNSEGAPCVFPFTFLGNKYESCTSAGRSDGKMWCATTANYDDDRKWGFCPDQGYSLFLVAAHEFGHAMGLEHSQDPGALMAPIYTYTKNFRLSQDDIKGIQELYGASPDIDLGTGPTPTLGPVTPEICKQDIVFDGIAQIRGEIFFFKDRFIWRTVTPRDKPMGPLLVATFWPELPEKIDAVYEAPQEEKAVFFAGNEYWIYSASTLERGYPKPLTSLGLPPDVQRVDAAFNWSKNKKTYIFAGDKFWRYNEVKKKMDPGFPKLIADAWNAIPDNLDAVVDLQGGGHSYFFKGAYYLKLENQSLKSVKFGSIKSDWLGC
The test can be described thus: In vitro metalloprotease inhibition, MMP-2.

Another test has as its target MMP-3 (Stromelysin-1) (Homo sapiens, UniProt P08254). The test can be described thus: In vitro metalloprotease inhibition, MMP-3. The text has this: (§1) Blank cells indicate lack of data only.
Test [2] has as its target T2, MMP-1 (Fibroblast collagenase) (Homo sapiens, UniProt P03956).
T2 sequence (P03956 100-469): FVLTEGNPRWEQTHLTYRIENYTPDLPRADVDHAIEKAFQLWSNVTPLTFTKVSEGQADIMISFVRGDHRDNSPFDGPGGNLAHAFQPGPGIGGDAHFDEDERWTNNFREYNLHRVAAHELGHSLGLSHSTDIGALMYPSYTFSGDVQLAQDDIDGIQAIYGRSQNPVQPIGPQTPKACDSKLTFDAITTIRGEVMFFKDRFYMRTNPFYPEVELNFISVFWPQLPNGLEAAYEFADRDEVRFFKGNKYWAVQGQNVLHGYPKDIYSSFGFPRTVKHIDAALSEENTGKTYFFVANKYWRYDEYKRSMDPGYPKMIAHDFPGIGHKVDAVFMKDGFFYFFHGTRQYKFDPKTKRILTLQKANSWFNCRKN
The test can be described thus: In vitro metalloprotease inhibition, MMP-1.
Excerpt: as §1

Sequence of MMP-3 (Stromelysin-1) (P08254 100-477, species assumed): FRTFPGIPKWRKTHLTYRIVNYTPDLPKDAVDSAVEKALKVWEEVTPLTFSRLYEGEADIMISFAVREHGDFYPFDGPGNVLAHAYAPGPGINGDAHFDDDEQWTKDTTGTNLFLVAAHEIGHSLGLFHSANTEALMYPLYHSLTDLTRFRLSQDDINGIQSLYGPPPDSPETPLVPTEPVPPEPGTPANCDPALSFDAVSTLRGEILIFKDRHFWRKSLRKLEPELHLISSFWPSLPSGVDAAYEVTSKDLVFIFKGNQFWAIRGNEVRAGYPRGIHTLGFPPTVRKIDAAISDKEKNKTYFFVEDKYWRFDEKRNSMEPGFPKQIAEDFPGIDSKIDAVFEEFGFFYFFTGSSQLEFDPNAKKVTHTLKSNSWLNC

On to `O=C(NO)[C@H]1CN(C(=O)OCCN2CCCC2)CCN1S(=O)(=O)c1cc(F)c(Oc2ccc(Cl)cc2)c(F)c1` [Entry 18], for which the IC50 – broadly, the concentration that inhibits the measured activity by half – against MMP-13 (collagenase-3) was < 50 nM; in test [1] it was < 50 nM; at MMP-3 (Stromelysin-1), 50 to 1000 nM; in test [2], > 20000 nM.

Take `O=C(NO)[C@H]1CN(C(=O)N2CCOCC2)CCN1S(=O)(=O)c1cc(F)c(Oc2ccc(F)cc2)c(F)c1` [Entry 12]: the IC50 against MMP-13 (collagenase-3) is < 50 nM; in test [1], < 50 nM; on MMP-3 (Stromelysin-1), 50 to 1000 nM; in test [2], 1000 to 20000 nM.

Regarding `O=C(NO)[C@H]1CN(C(=O)NCCN2CCCC2)CCN1S(=O)(=O)c1cc(F)c(Oc2ccc(Cl)cc2)c(F)c1` [Entry 17], the IC50 against MMP-13 (collagenase-3) was < 50 nM; in test [1] it was < 50 nM; against MMP-3 (Stromelysin-1), 50 to 1000 nM; in test [2], 1000 to 20000 nM.

On to `O=C(NO)[C@H]1CN(C(=O)N2CCOCC2)CCN1S(=O)(=O)c1ccc(Oc2ccc(F)cc2)cc1` [Entry 2], for which the IC50 (against MMP-13 (collagenase-3); in test [1]; against MMP-3 (Stromelysin-1); in test [2]) was < 50 nM throughout.

For `CN(C)C(=O)CN1CCN(S(=O)(=O)c2cc(F)c(Oc3ccc(Cl)cc3)c(F)c2)[C@@H](C(=O)NO)C1` [Entry 20], the IC50 is < 50 nM on MMP-13 (collagenase-3), < 50 nM in test [1], 1000 to 20000 nM against MMP-3 (Stromelysin-1) and > 20000 nM in test [2].

On to `O=C(NO)[C@H]1CN(C(=O)N2CCOCC2)CCN1S(=O)(=O)c1ccc(Oc2ccc(F)cc2)c(F)c1` [Entry 8], for which the IC50 against MMP-13 (collagenase-3) is < 50 nM; in test [1] it was < 50 nM; on MMP-3 (Stromelysin-1), < 50 nM; in test [2], 50 to 1000 nM.

On to `CN1CCN(CC(=O)N2CCN(S(=O)(=O)c3cc(F)c(Oc4ccc(Cl)cc4)c(F)c3)[C@@H](C(=O)NO)C2)CC1` [Entry 24], for which the IC50 against MMP-13 (collagenase-3) is < 50 nM; in test [1] it was < 50 nM; at MMP-3 (Stromelysin-1), 1000 to 20000 nM; in test [2] it was > 20000 nM.

For `O=C(CN1CCOCC1)NC(=O)N1CCN(S(=O)(=O)c2cc(F)c(Oc3ccc(Cl)cc3)c(F)c2)[C@@H](C(=O)NO)C1` [Entry 46], the IC50 was < 50 nM against MMP-13 (collagenase-3), < 50 nM in test [1], 50 to 1000 nM against MMP-3 (Stromelysin-1) and 1000 to 20000 nM in test [2].

On to `CN1CCN(C(=O)NS(=O)(=O)N2CCN(S(=O)(=O)c3cc(F)c(Oc4ccc(Cl)cc4)c(F)c3)[C@@H](C(=O)NO)C2)CC1` [Entry 39], for which the IC50 on MMP-13 (collagenase-3) is < 50 nM; in test [1], < 50 nM; at MMP-3 (Stromelysin-1), < 50 nM; in test [2], 50 to 1000 nM.

On to `COCCOC(=O)N1CCN(S(=O)(=O)c2ccc(Oc3ccc(F)cc3)nc2)[C@@H](C(=O)NO)C1` [Entry 65], for which the IC50 (against MMP-13 (collagenase-3); in test [1]; at MMP-3 (Stromelysin-1); in test [2]) was < 50 nM in each case.

In the case of `O=C(NO)[C@H]1CN(C(=O)N2CCOCC2)CCN1S(=O)(=O)c1ccc(-c2cccc(F)c2)nc1` [Entry 58], the IC50 was < 50 nM against MMP-13 (collagenase-3), < 50 nM in test [1], 50 to 1000 nM against MMP-3 (Stromelysin-1) and 50 to 1000 nM in test [2].

`O=C(NO)[C@H]1CN(C(=O)CN2CCOCC2)CCN1S(=O)(=O)c1cc(F)c(Oc2ccc(Cl)cc2)c(F)c1` [Entry 25]: the IC50 at MMP-13 (collagenase-3) was < 50 nM; in test [1], < 50 nM; at MMP-3 (Stromelysin-1) it was 50 to 1000 nM; in test [2], > 20000 nM.

For the compound `COCCOC(=O)N1CCN(S(=O)(=O)c2cc(F)c(Oc3ccc(F)cc3)c(F)c2)[C@@H](C(=O)NO)C1` [Entry 10], the IC50 against MMP-13 (collagenase-3) is < 50 nM; in test [1], < 50 nM; against MMP-3 (Stromelysin-1) it was 1000 to 20000 nM; in test [2], 1000 to 20000 nM.

On to `CN(C)c1ccc2ccc(S(=O)(=O)N3CCN(S(=O)(=O)c4cc(F)c(Oc5ccc(Cl)cc5)c(F)c4)[C@@H](C(=O)NO)C3)cc2c1` [Entry 50], for which the IC50 against MMP-13 (collagenase-3) was < 50 nM; in test [1] it was > 20000 nM; against MMP-3 (Stromelysin-1) it was 50 to 1000 nM; in test [2] it was > 20000 nM.

On to `O=C(NO)[C@H]1CN(C(=O)C(=O)N2CCCCC2)CCN1S(=O)(=O)c1cc(F)c(Oc2ccc(Cl)cc2)c(F)c1` [Entry 35], for which the IC50 on MMP-13 (collagenase-3) was < 50 nM; in test [1], < 50 nM; at MMP-3 (Stromelysin-1), 50 to 1000 nM; in test [2], 1000 to 20000 nM.

As for `CCCCCCC(=O)N1CCN(S(=O)(=O)c2cc(F)c(Oc3ccc(Cl)cc3)c(F)c2)[C@@H](C(=O)NO)C1` [Entry 43], the IC50 is < 50 nM on MMP-13 (collagenase-3), < 50 nM in test [1], 50 to 1000 nM against MMP-3 (Stromelysin-1) and > 20000 nM in test [2].

Turning to `COCCOC(=O)N1CCN(S(=O)(=O)c2ccc(Oc3ccc(C#N)cc3)c(F)c2)[C@@H](C(=O)NO)C1` [Entry 5], the IC50 is < 50 nM against MMP-13 (collagenase-3), < 50 nM in test [1], 50 to 1000 nM against MMP-3 (Stromelysin-1) and 50 to 1000 nM in test [2].

On to `O=C(NO)[C@H]1CN(C(=O)N2CCOCC2)CCN1S(=O)(=O)c1ccc(Oc2ccc(Cl)cc2)c(F)c1` [Entry 6], for which the IC50 on MMP-13 (collagenase-3) is < 50 nM; in test [1] it was < 50 nM; at MMP-3 (Stromelysin-1) it was < 50 nM; in test [2], 50 to 1000 nM.

Consider `CN(C)c1cccc2c(S(=O)(=O)N3CCN(S(=O)(=O)c4cc(F)c(Oc5ccc(Cl)cc5)c(F)c4)[C@@H](C(=O)NO)C3)cccc12` [Entry 60], for which the IC50 against MMP-13 (collagenase-3) is < 50 nM; in test [1] it was < 50 nM; at MMP-3 (Stromelysin-1), 1000 to 20000 nM; in test [2] it was > 20000 nM.

`O=C(NO)[C@H]1CN(S(=O)(=O)CCN2CCCCC2)CCN1S(=O)(=O)c1cc(F)c(Oc2ccc(Cl)cc2)c(F)c1` [Entry 53]: the IC50 at MMP-13 (collagenase-3) was < 50 nM; in test [1], < 50 nM; at MMP-3 (Stromelysin-1) it was 50 to 1000 nM; in test [2], 50 to 1000 nM.

For `COCCOC(=O)N1CCN(S(=O)(=O)c2ccc(-c3cccc(F)c3)nc2)[C@@H](C(=O)NO)C1` [Entry 66], the IC50 on MMP-13 (collagenase-3) was < 50 nM; in test [1], < 50 nM; against MMP-3 (Stromelysin-1), < 50 nM; in test [2], 50 to 1000 nM.

Turning to `C=CCN1CCN(S(=O)(=O)c2cc(F)c(Oc3ccc(Cl)cc3)c(F)c2)[C@@H](C(=O)NO)C1` [Entry 62], the IC50 is < 50 nM against MMP-13 (collagenase-3), < 50 nM in test [1], 1000 to 20000 nM at MMP-3 (Stromelysin-1) and > 20000 nM in test [2].

Regarding `O=C(NO)[C@H]1CN(C(=O)c2ccncc2)CCN1S(=O)(=O)c1cc(F)c(Oc2ccc(Cl)cc2)c(F)c1` [Entry 42], the IC50 at MMP-13 (collagenase-3) was < 50 nM; in test [1], < 50 nM; at MMP-3 (Stromelysin-1) it was 1000 to 20000 nM; in test [2] it was 1000 to 20000 nM.

Consider `CCOC(=O)N1CCN(S(=O)(=O)c2cc(F)c(Oc3ccc(F)cc3)c(F)c2)[C@@H](C(=O)NO)C1` [Entry 13], for which the IC50 against MMP-13 (collagenase-3) was < 50 nM; in test [1], < 50 nM; against MMP-3 (Stromelysin-1), 50 to 1000 nM; in test [2], 1000 to 20000 nM.

In the case of `O=C(NO)[C@H]1CN(C(=O)CN2CCCCC2)CCN1S(=O)(=O)c1cc(F)c(Oc2ccc(Cl)cc2)c(F)c1` [Entry 26], the IC50 is < 50 nM against MMP-13 (collagenase-3), < 50 nM in test [1], 1000 to 20000 nM against MMP-3 (Stromelysin-1) and > 20000 nM in test [2].

For `O=C(NO)[C@H]1CNCCN1S(=O)(=O)c1cc(F)c(Oc2ccc(F)cc2)c(F)c1` [Entry 11], the IC50 against MMP-13 (collagenase-3) was > 20000 nM; in test [1] it was 50 to 1000 nM; at MMP-3 (Stromelysin-1), 1000 to 20000 nM; in test [2], > 20000 nM.

With `CN1CCN(C(=O)N2CCN(S(=O)(=O)c3cc(F)c(Oc4ccc(Cl)cc4)c(F)c3)[C@@H](C(=O)NO)C2)CC1` [Entry 16], the IC50 against MMP-13 (collagenase-3) was < 50 nM; in test [1] it was < 50 nM; on MMP-3 (Stromelysin-1) it was 1000 to 20000 nM; in test [2], > 20000 nM.

`CN(C)S(=O)(=O)N1CCN(S(=O)(=O)c2cc(F)c(Oc3ccc(Cl)cc3)c(F)c2)[C@@H](C(=O)NO)C1` [Entry 36]: the IC50 against MMP-13 (collagenase-3) was < 50 nM; in test [1], < 50 nM; against MMP-3 (Stromelysin-1), 50 to 1000 nM; in test [2] it was 1000 to 20000 nM.

As for `CN1CCN(S(=O)(=O)c2cc(F)c(Oc3ccc(F)cc3)c(F)c2)[C@@H](C(=O)NO)C1` [Entry 14], the IC50 at MMP-13 (collagenase-3) was < 50 nM; in test [1] it was < 50 nM; against MMP-3 (Stromelysin-1), > 20000 nM; in test [2], > 20000 nM.

With `O=C(CCl)NC(=O)N1CCN(S(=O)(=O)c2cc(F)c(Oc3ccc(Cl)cc3)c(F)c2)[C@@H](C(=O)NO)C1` [Entry 33], the IC50 on MMP-13 (collagenase-3) was < 50 nM; in test [1] it was < 50 nM; against MMP-3 (Stromelysin-1) it was 50 to 1000 nM; in test [2] it was 1000 to 20000 nM.
